{"source": "patent US12617794B2", "about": "“GABAA positive allosteric modulator compounds, methods of making, and uses thereof” (NEUROCYCLE THERAPEUTICS, INC., priority 2019, dated 2026)", "type_in_all_cases": "physicochemical", "key": {"[1]": {"test": "Slurry and stability study of phosphate (30.4, Example 35)", "conditions": "IPAC, EA", "source_text": "The suspensions were filtered and characterized by XRPD."}, "[2]": {"test": "DVS of TPA023B Phosphate Form A (Example 33)", "conditions": "for hygroscopicity: DVS; for crystal form after DVS test: XRPD"}, "[3]": {"test": "Hygroscopicity by dynamic vapor sorption (DVS), Example 4", "description": "The hygroscopicity of Phosphate Polymorph Form A was measured by Dynamic vapor sorption (DVS). […] After DVS, XRPD confirmed that the crystalline form was retained (FIG. 19)."}, "[4]": {"test": "Fast cooling crystallization (Example 63)", "conditions": "fast cooling to 4° C. or −20° C.", "description": "The suspensions were filtered to obtain saturated solution which was cooled to final temperature (4° C. or −20° C.) immediately and characterized.\nThe suspensions were filtered to obtain saturated solutions which were immediately cooled to final temperature (4° C. or −20° C.). Any solids obtained were characterized."}, "[5]": {"test": "One week accelerated stability testing (Example 3)", "description": "The stability of Phosphate Polymorphic Form A and Free Base Polymorphic Form A were evaluated under accelerated conditions."}, "[6]": {"test": "Polymer induced crystallization (Example 67)", "conditions": "evaporative crystallization at RT, ~10% polymer", "description": "Then ˜10% of polymer was added into clear solution. The mixture was evaporated to dryness at RT. The solid was isolated and characterized.\nNo new phosphate form was obtained."}, "[7]": {"test": "Slow cooling crystallization (Example 64)", "conditions": "slow cooling to RT", "source_text": "The suspensions were filtered to obtain saturated solution, and it was kept in an oil bath to cool to RT. The solids obtained were characterized.\nThe suspensions were filtered to obtain a saturated solution, and it was kept in an oil bath which was allowed to cool to RT naturally. Any solids obtained were characterized. […] No new phosphate Form was obtained."}, "[8]": {"test": "Preliminary (estimated) solubility study of TPA023B Phosphate Form A (30.3, Example 34)", "conditions": "estimated by visual observation", "description": "Then the mixture was agitated in a shaker block for at least 30 mins. Additional solvent was added in a stepwise manner until all solids were dissolved. The dissolution was checked by visual observation and the amount of solvent required to dissolve all the solids was recorded."}, "[9]": {"conditions": "solvent 2-methyl tetrahydrofuran"}}, "note": "Like-named read-outs stand apart in the source and are kept apart here."}
{"smiles": "CC(C)(O)c1cnn2c(-c3ccc(F)c(-c4c(F)cccc4C#N)c3)cnc2n1", "note": "[Phosphate Polymorphic Form A, 2′,6-difluoro-5′-[3-(1-hydroxy-1-methylethyl)-imidazo[1,2-b][1,2,4]triazin-7-yl]biphenyl-2-carbonitrile]", "values": [{"measurement": "crystal form after slurry (XRPD)", "setting": "[1]; 100 mg slurried in 2 mL THF, 2-Me THF, acetone and ACN at RT", "result": "remains unchanged"}, {"measurement": "stability in solvents", "setting": "[1]; THF, 2-Me-THF, Acetone, MTBE or ACN", "result": "stable"}, {"measurement": "hygroscopicity", "setting": "[2]; listed as Phosphate Form A", "result": "slightly hygroscopic"}, {"measurement": "hygroscopicity", "setting": "[2]; listed as phosphate Form A", "result": "slight hygroscopicity"}, {"measurement": "crystal form after DVS test", "setting": "[2]; listed as Phosphate Form A", "result": "remained unchanged"}, {"measurement": "crystal form after DVS test", "setting": "[2]; listed as phosphate Form A", "result": "no change"}, {"measurement": "water absorbed (DVS)", "setting": "[2]; from 0 to 80% RH", "result": 0.68, "unit": "%"}, {"measurement": "crystalline form after DVS (XRPD)", "setting": "[3]", "result": "retained"}, {"measurement": "reversible mass increase (DVS)", "setting": "[3]", "result": "about 1.08%"}, {"measurement": "Result (solid form obtained)", "setting": "[4]; solvent 1,4-dioxane", "result": "No solid"}, {"measurement": "Result (solid form obtained)", "setting": "[4]; solvent 1-methyl-2-pyrrolidone", "result": "No solid"}, {"measurement": "Result (solid form obtained)", "setting": "[4]; solvent 2-butanone", "result": "Phosphate Form A"}, {"measurement": "Result (solid form obtained)", "setting": "[4]; [9]", "result": "No solid"}, {"measurement": "Result (solid form obtained)", "setting": "[4]; solvent 4-methyl-2-pentanone", "result": "Phosphate Form A"}, {"measurement": "Result (solid form obtained)", "setting": "[4]; solvent ACN", "result": "Phosphate Form A"}, {"measurement": "Result (solid form obtained)", "setting": "[4]; solvent Acetone", "result": "Phosphate Form A"}, {"measurement": "Result (solid form obtained)", "setting": "[4]; solvent Anisole", "result": "No solid"}, {"measurement": "Result (solid form obtained)", "setting": "[4]; solvent BAC", "result": "Phosphate Form A"}, {"measurement": "Result (solid form obtained)", "setting": "[4]; solvent Butanol", "result": "Freebase form A"}, {"measurement": "Result (solid form obtained)", "setting": "[4]; solvent DMF", "result": "No solid"}, {"measurement": "Result (solid form obtained)", "setting": "[4]; solvent DMSO", "result": "No solid"}, {"measurement": "Result (solid form obtained)", "setting": "[4]; solvent EA", "result": "Phosphate Form A"}, {"measurement": "Result (solid form obtained)", "setting": "[4]; solvent Ethyl formate", "result": "Phosphate Form A"}, {"measurement": "Result (solid form obtained)", "setting": "[4]; solvent Isoamyl alcohol", "result": "New Free Base pattern K"}, {"measurement": "Result (solid form obtained)", "setting": "[4]; solvent MAC", "result": "Phosphate Form A"}, {"measurement": "Result (solid form obtained)", "setting": "[4]; solvent MEK", "result": "Phosphate Form A"}, {"measurement": "Result (solid form obtained)", "setting": "[4]; solvent Propyl acetate", "result": "Phosphate Form A"}, {"measurement": "Result (solid form obtained)", "setting": "[4]; solvent THF", "result": "No solid"}, {"measurement": "Assay (%)", "setting": "[5]; 40° C./75% RH (open), 1 week", "result": 97.12, "unit": "%"}, {"measurement": "Purity (%)", "setting": "[5]; 40° C./75% RH (open), 1 week", "result": 99.02, "unit": "%"}, {"measurement": "Assay (%)", "setting": "[5]; 80° C. (open), 1 week", "result": 95.99, "unit": "%"}, {"measurement": "Purity (%)", "setting": "[5]; 80° C. (open), 1 week", "result": 98.94, "unit": "%"}, {"measurement": "Purity (%)", "setting": "[5]; Initial", "result": 98.91, "unit": "%"}, {"measurement": "Assay (%)", "setting": "[5]; Initial, assay criterion 95%-105%", "result": 104.60, "unit": "%"}, {"measurement": "Assay (%)", "setting": "[5]; Light, ~50 h", "result": 95.25, "unit": "%"}, {"measurement": "Purity (%)", "setting": "[5]; Light, ~50 h", "result": 97.55, "unit": "%"}, {"measurement": "Result (solid form obtained)", "setting": "[6]; solvent MEK, polymer EC (Ethyl cellulose)", "result": "Phosphate Form A"}, {"measurement": "Result (solid form obtained)", "setting": "[6]; solvent MEK, polymer PAA Poly(acrylic acid)", "result": "Phosphate Form A"}, {"measurement": "Result (solid form obtained)", "setting": "[6]; solvent MEK, polymer PEG4000, listed as Phosphate Form A", "result": "Free Base Form F"}, {"measurement": "Result (solid form obtained)", "setting": "[6]; solvent MEK, polymer PVP-K30 (Polyvinyl pyrrolidone), listed as Phosphate Form A", "result": "Free Base Form F"}, {"measurement": "Result (solid form obtained)", "setting": "[6]; solvent THF, polymer EC", "result": "Phosphate Form A"}, {"measurement": "Result (solid form obtained)", "setting": "[6]; solvent THF, polymer PAA Poly", "result": "Phosphate Form A"}, {"measurement": "Result (solid form obtained)", "setting": "[6]; solvent THF, polymer PEG4000", "result": "Phosphate Form A"}, {"measurement": "Result (solid form obtained)", "setting": "[6]; solvent THF, polymer PVP-K30", "result": "Phosphate Form 1A"}, {"measurement": "Result (solid form obtained)", "setting": "[7]; solvent 2-butanone", "result": "Phosphate Form A"}, {"measurement": "Result (solid form obtained)", "setting": "[7]; [9]", "result": "No solid"}, {"measurement": "Result (solid form obtained)", "setting": "[7]; solvent ACN", "result": "Phosphate Form A"}, {"measurement": "Result (solid form obtained)", "setting": "[7]; solvent Anisole", "result": "No solid"}, {"measurement": "Result (solid form obtained)", "setting": "[7]; solvent BAC", "result": "Phosphate Form A"}, {"measurement": "Result (solid form obtained)", "setting": "[7]; solvent Butanol", "result": "Free Base Form E"}, {"measurement": "Result (solid form obtained)", "setting": "[7]; solvent EA", "result": "No solid"}, {"measurement": "Result (solid form obtained)", "setting": "[7]; solvent Isoamyl alcohol", "result": "Free Base Form E"}, {"measurement": "Result (solid form obtained)", "setting": "[7]; solvent MAC", "result": "No solid"}, {"measurement": "Result (solid form obtained)", "setting": "[7]; solvent THF", "result": "No solid"}, {"measurement": "solubility", "setting": "[8]; 1,4-Dioxane, organic solvent or mixture, thermodynamic from solid, 1,4-Dioxane, read-out: Solubility", "result": 25000, "unit": "µg/mL"}, {"measurement": "solubility", "setting": "[8]; 2-Me THF, organic solvent or mixture, thermodynamic from solid, 2-Me THF, read-out: Solubility", "result": 20000, "unit": "µg/mL"}, {"measurement": "solubility", "setting": "[8]; ACN, organic solvent or mixture, thermodynamic from solid, ACN, read-out: Solubility", "result": "< 2000", "unit": "µg/mL"}, {"measurement": "solubility", "setting": "[8]; DCM, organic solvent or mixture, thermodynamic from solid, DCM, read-out: Solubility", "result": 2000, "unit": "µg/mL"}, {"measurement": "solubility", "setting": "[8]; DMF, organic solvent or mixture, thermodynamic from solid, DMF, read-out: Solubility", "result": 96000, "unit": "µg/mL"}, {"measurement": "solubility", "setting": "[8]; DMSO, organic solvent or mixture, thermodynamic from solid, DMSO, read-out: Solubility", "result": 93000, "unit": "µg/mL"}, {"measurement": "solubility", "setting": "[8]; EA, organic solvent or mixture, thermodynamic from solid, EA, read-out: Solubility", "result": "< 2000", "unit": "µg/mL"}, {"measurement": "solubility", "setting": "[8]; EA, listed as TPA023B Phosphate Form A", "result": "<2000", "unit": "µg/mL"}, {"measurement": "solubility", "setting": "[8]; Heptane, listed as TPA023B Phosphate Form A", "result": "<1000", "unit": "µg/mL"}, {"measurement": "solubility", "setting": "[8]; IPA, organic solvent or mixture, thermodynamic from solid, IPA, read-out: Solubility", "result": 2500, "unit": "µg/mL"}, {"measurement": "solubility", "setting": "[8]; MTBE, organic solvent or mixture, thermodynamic from solid, MTBE, read-out: Solubility", "result": "< 2000", "unit": "µg/mL"}, {"measurement": "solubility", "setting": "[8]; MTBE, listed as TPA023B Phosphate Form A", "result": "<1500", "unit": "µg/mL"}, {"measurement": "solubility", "setting": "[8]; THF, organic solvent or mixture, thermodynamic from solid, THF, read-out: Solubility", "result": 28000, "unit": "µg/mL"}, {"measurement": "solubility", "setting": "[8]; Water, listed as TPA023B Phosphate Form A", "result": "<2000", "unit": "µg/mL"}, {"measurement": "solubility", "setting": "[8]; acetone, organic solvent or mixture, thermodynamic from solid, Acetone, read-out: Solubility", "result": 7000, "unit": "µg/mL"}, {"measurement": "solubility", "setting": "[8]; ethanol, organic solvent or mixture, thermodynamic from solid, Ethanol, read-out: Solubility", "result": 3000, "unit": "µg/mL"}, {"measurement": "solubility", "setting": "[8]; heptane, organic solvent or mixture, thermodynamic from solid, Heptane, read-out: Solubility", "result": "< 2000", "unit": "µg/mL"}, {"measurement": "solubility", "setting": "[8]; methanol, organic solvent or mixture, thermodynamic from solid, Methanol, read-out: Solubility", "result": 9500, "unit": "µg/mL"}, {"measurement": "solubility", "setting": "[8]; water, thermodynamic from solid, Water, read-out: Solubility", "result": "< 2000", "unit": "µg/mL"}]}
